From patent US9661856B1, “Synergy of plant antimicrobials with silver” (The Arizona Board of Regents on behalf of the University of …, priority 2012, dated 2017)

Legend:
[1] = test system: Escherichia coli strain 25922; experiment: Reduction of Escherichia coli in PBS after exposure to plant antimicrobials with and without silver (spread plate count); type: cell-based; settings: for effect of combination with silver ions on antimicrobial activity against E. coli: plant antimicrobial combined with silver ions in solution; for reduction with silver alone treatment (in words): 100 ppb silver alone, within 30 min of exposure
Description: Escherichia coli strain 25922 was obtained from the American Type Culture Collection (ATCC; Manassas, Va., USA) and was maintained on Tryptic Soy Agar (TSA; Difco, Sparks, Md., USA) with incubation for 18 to 24 h at 37° C. Prior to the start of each experiment, an Erlenmeyer flask containing 100 ml of Tryptic Soy Broth (TSB; Difco, Sparks, Md., USA) was inoculated with the organism and incubated on an orbital shaker (Model […]; New Brunswick Scientific, Edison, N.J., USA) at 300 rpm at 37° C. overnight. […] Beckman Coulter, Inc., Fullerton, Calif., USA). The pelleted cells were washed by re-suspension in 100 ml of physiological saline (0.85% NaCl) followed by centrifugation as described previously. This step was repeated one additional time. The final pellet was resuspended in 10 ml of sterile phosphate buffered saline (PBS; pH 7.4; Sigma-Aldrich, St. Louis, Mo., USA). […] A stock solution of silver (Ag) ions was prepared immediately prior to the start of each experiment by adding AgNO3 (J.T. Baker, Phillipsburg, N.Y., USA) to distilled water to obtain an Ag ion concentration of 100 mg/l (100 ppm). The Ag concentration was measured at the beginning of each experiment by a colorimetric procedure using a Hach DR/2000 spectrophotometer (Anonymous 1989). […] (Berkley, Calif., USA). […] Louis, Mo., USA). The plant antimicrobials were dissolved and diluted (volume to volume) to specific test concentrations using PBS. […] A control with E. coli in PBS but no added antimicrobials was also included. Purified stocks of the bacteria were added separately to the antimicrobial solutions (final concentration of […]) and the flasks were placed on an orbital shaker (300 rpm) for the duration of the experiment. Experiments were performed in triplicate at room temperature (24° C.) in 50 ml polypropylene conical tubes (Becton, Dickinson and Company, Franklin Lakes, N.J., USA). At predetermined time intervals, 100 μl samples were collected and neutralized with Dey Engley (D/E) neutralizing broth (Difco, Sparks, Md., USA) at a ratio of 1:10. The D/E is neutralizes the antimicrobial effect of silver whereas the plant antimicrobials are neutralized via dilution. Samples were assayed for bacterial enumeration immediately. Bacterial samples were ten-fold serially diluted in physiological saline as needed and the surviving bacteria were enumerated using the spread plate method on duplicate plates of Levine Eosin Methylene Blue Agar (EMB; Becton, Dickinson and Company, Franklin Lakes, N.J., USA). The plates were incubated at 37° C. for 24 hours and the surviving bacterial colonies were counted. Data were reported as logarithmic reduction using the formula […], where N0 was the concentration of E. coli at time zero and Nt was the surviving concentration at time t. A Student's t-test was used to determine if there were significant differences between the control and the antimicrobial treatments (the reductions were compared to the control after 30 min) or between the various treatments (for each exposure time).

[2] = humans; based on epidemiological and pharmacokinetic data (WHO); cited from earlier work

## Cc1ccc(C(C)C)cc1O [Carvacrol, carvacrol]
[1]
  effect of combination with silver ions on antimicrobial activity against E. coli: enhanced or synergistic

## CC(C)=CCCC(C)=CC=O [Citral]
[1]; Table 1, 1 min, 0.05% citral (vol/vol), silver 100 ppb, PBS, inoculum 1.7 × 10^7 CFU/ml
  Reduction (Log10 ± standard deviation) in the population of Escherichia coli: 0.06 ± 0.03 Log10
[1]
  effect of combination with silver ions on antimicrobial activity against E. coli: enhanced or synergistic

## O=C/C=C/c1ccccc1 [Cinnamaldehyde]
[1]; 0.05% citral, 0.02% carvacrol or 0.1% cinnamaldehyde, alone or with 100 ppb Ag, PBS
  exposure time within which the reduction was statistically significant (P≦0.05) compared to the control: ≤ 20 min
[1]; Table 3, 1 min, 0.1% cinnamaldehyde (vol/vol), silver 100 ppb, PBS, inoculum 2.1 × 10^7 CFU/ml
  Reduction (Log10 ± standard deviation) in the population of Escherichia coli: 0.05 ± 0.04 Log10
[1]; Table 3, 5 min, 0.1% cinnamaldehyde (vol/vol), silver 100 ppb, PBS, inoculum 2.1 × 10^7 CFU/ml
  Reduction (Log10 ± standard deviation) in the population of Escherichia coli: 0.18 ± 0.04 Log10
[1]; Table 3, 10 min, 0.1% cinnamaldehyde (vol/vol), silver 100 ppb, PBS, inoculum 2.1 × 10^7 CFU/ml
  Reduction (Log10 ± standard deviation) in the population of Escherichia coli: 0.17 ± 0.07 Log10
[1]; Table 6, cinnamaldehyde 0.1% (vol/vol) in PBS, 1 min, inoculum 2.1 × 10^7 CFU/ml
  Reduction (Log10 ± standard deviation) in the population of Escherichia coli: 0.05 ± 0.04 Log10
[1]
  effect of combination with silver ions on antimicrobial activity against E. coli: enhanced or synergistic

## [Ag+] [Silver]
[1]
  reduction with silver alone treatment (in words): no reductions were observed
[1]; listed as Ag
  reduction with silver alone treatment (in words): No significant reductions
[1]; Table 1, 30 min, 0.05% citral (vol/vol), silver 100 ppb, PBS, inoculum 1.7 × 10^7 CFU/ml
  Reduction (Log10 ± standard deviation) in the population of Escherichia coli: 0.01 ± 0.04 Log10
[1]; Table 2, 5 min, 0.02% carvacrol (vol/vol), silver 100 ppb, PBS, inoculum 2.9 × 10^7 CFU/ml
  Reduction (Log10 ± standard deviation) in the population of Escherichia coli: 0.08 ± 0.12 Log10
[1]; Table 2, 10 min, 0.02% carvacrol (vol/vol), silver 100 ppb, PBS, inoculum 2.9 × 10^7 CFU/ml
  Reduction (Log10 ± standard deviation) in the population of Escherichia coli: 0.00 ± 0.06 Log10
[1]; Table 2, 30 min, 0.02% carvacrol (vol/vol), silver 100 ppb, PBS, inoculum 2.9 × 10^7 CFU/ml
  Reduction (Log10 ± standard deviation) in the population of Escherichia coli: 0.00 ± 0.04 Log10
[1]; Table 3, 30 min, 0.1% cinnamaldehyde (vol/vol), silver 100 ppb, PBS, inoculum 2.1 × 10^7 CFU/ml
  Reduction (Log10 ± standard deviation) in the population of Escherichia coli: 0.12 ± 0.10 Log10
[1]; Table 4, 1 min, 0.5% allspice oil (vol/vol), silver 100 ppb, PBS, inoculum 6.6 × 10^6 CFU/ml
  Reduction (Log10 ± standard deviation) in the population of Escherichia coli: 0.00 ± 0.03 Log10
[1]; Table 4, 5 min, 0.5% allspice oil (vol/vol), silver 100 ppb, PBS, inoculum 6.6 × 10^6 CFU/ml
  Reduction (Log10 ± standard deviation) in the population of Escherichia coli: 0.00 ± 0.08 Log10
[1]; Table 4, 10 min, 0.5% allspice oil (vol/vol), silver 100 ppb, PBS, inoculum 6.6 × 10^6 CFU/ml
  Reduction (Log10 ± standard deviation) in the population of Escherichia coli: 0.00 ± 0.12 Log10
[1]; Table 4, 20 min, 0.5% allspice oil (vol/vol), silver 100 ppb, PBS, inoculum 6.6 × 10^6 CFU/ml
  Reduction (Log10 ± standard deviation) in the population of Escherichia coli: 0.00 ± 0.23 Log10
[1]; Table 4, 30 min, 0.5% allspice oil (vol/vol), silver 100 ppb, PBS, inoculum 6.6 × 10^6 CFU/ml
  Reduction (Log10 ± standard deviation) in the population of Escherichia coli: 0.29 ± 0.32 Log10
[2]
  No Observable Adverse Effect Level (NOAEL), lifetime limit of silver: 10 g
